Measured values: US8945566B2, “Methods for improving the bioactivity of therapeutic IgE antibodies for the treatment of disease” (Quest PharmaTech, Inc., priority 2008, dated 2015)

Experiments:
[1] = system: transgenic mice expressing the human FcεRIα; test: passive cutaneous anaphylaxis with tumor microspheroids; format: in vivo; details: agent administered to the mouse
Method: Passive cutaneous anaphylaxis is performed in transgenic mice expressing the human FcεRIα. Transgenic mice are shaved and injected intradermally in different regions of the dorsal side with […] of 6 mg/ml histamine base (HollisterStier, Spokane, Wash.), 1 μg anti-PSA IgE, CT26-PSA or CT26-Neo microspheroid alone, 2 μg of crosslinker anti-human kappa antibody alone, 1 μg anti-PSA IgE plus CT26-PSA or CT26-Neo microspheroid, or 1 μg anti-PSA IgE crosslinked with 2 μg of an anti-human kappa antibody. After 15 min, 1% Evans Blue in […] saline is injected i.v. Mice are sacrificed 20 min later, and local cutaneous anaphylaxis is assessed visually by the blue leakage in the area surrounding the injection. […] This effect is not prevented by administration of cortisol to the mouse; however pre-administration of an H1 blocking agent inhibits the size of the response.

[2] = system: SKBR3 human breast cancer cells; test: histamine release and tumor cell killing with effector cells (PBMC or RBL-Sx-38); format: cell-based; details: poly IC 1 to 25 μg/ml added 30 minutes to 4 hours post co-incubation
Method: Tumor cells are incubated with increasing concentrations of Her-2 specific IgG or IgE and combined with the effector cells. Evidence of local effector cell activation is measured by assessing histamine and or beta hexosimimidase release into the culture supernatant. Confirmatory experiments showing specificity for the Her-2 Ag can be conducted using anti-NP IgE and NP-HSA or anti-PSA IgE and PSA or conjugated PSA. In addition to immediate hypersensitivity, the target cells can be pre-labeled with Calcein AM and the ability of the anti-Her2 IgE or IgG to induce tumor killing can be monitored via direct effect of the PBMC or the RBL-Sx-38 cells in inducing release of the Calcein AM label.
Having established the baseline activity of a representative Ag specific IgE monoclonal in terms of both histamine release and basic tumor cell killing, the effect of corticosteroid and specific adjuvant on the model can be measured. […] The ability of TLR3 stimulation to augment the ADCC effect is addressed by adding low concentrations (1 to 25 μg/ml) of poly IC (Sigma) to the system at various time points.

Compound | effect of co-medication on IgE-induced wheal and flare reaction [1] | cell killing (ADCC effect) [2]
C[C@]12CCC(=O)C=C1CC[C@@H]1[C@@H]2[C@@H](O)C[C@@]2(C)[C@H]1CC[C@]2(O)C(=O)CO [cortisol] | not prevented | –
poly IC | – | enhances the amount of killing observed
